Several values for one entry are separate records, joined by “and”; a condition that tells them apart may be missing. Equal values may be shown once. Read-outs that look alike come from different tables or passages of the source.
Key:
[1] = Local tolerance and clinical observations after intravesical RTX in dogs; assay type: in vivo, dog; settings: single 25 or 250 mcg intravesical
Protocol: (§1) Local tolerance and the pharmacokinetic (PK), and toxicokinetic (TK) profile of RTX in dogs was determined after a single instillation of RTX into the bladder of dogs (n=6). The RTX formulations were prepared using aseptic techniques in a biological safety cabinet (BSC) by mixing the appropriate amount of diluent with the appropriate amount of RTX. Dosing formulation concentrations used were 1 and 10 mcg/mL.
(§2) RTX was administered via intravesical instillation into the urinary bladder. The animals were given a single dose of 25 or 250 mcg/dose in a total volume of 25 mL on Day 1 over a period of 1 hour (±5 minutes). RTX and diluent were administered to the dogs under general anesthesia via a Foley catheter placed into the bladder for 1 hour (±5 minutes).
Observations for morbidity, mortality, injury, and the availability of food and water were conducted twice daily for all animals. Observations for clinical signs for all animals were conducted on Day 2. The observations included evaluation of the skin, fur, eyes, ears, nose, oral cavity, thorax, abdomen, external genitalia, limbs and feet, respiratory and circulatory effects, autonomic effects such as salivation, and nervous system effects including tremors, convulsions, reactivity to handling, and unusual behavior.

[2] = Pharmacokinetic/toxicokinetic profile of RTX after intravesical instillation in dogs; assay type: in vivo, dog
Protocol: as §1
Three male and three female dogs ranging in weight from 5.95 to 8.60 kg were used in the study. The dogs were assigned into Group 1 (receiving a dose of 1 mcg/mL RTX) or Group 2 (receiving a dose of 10 mcg/mL RTX) as shown in the Table 3 below.
as §2
Blood samples were collected from all animals on Day 1 pre-dose and at 0.5, 1, 2, 4, 6, 12, 24, 36, 48, 60, and 72 hours post-dose. The toxicokinetic (TK) parameters were determined for RTX, and if appropriate, the metabolites, from mean concentration-time data.
Cmax is the observed maximum plasma concentration from the start of dosing. Tmax is the time to reach the Cmax. AUC(0-T) is the area under the plasma concentration-time curve from time zero to the last measurable time point calculated by the linear trapezoidal rule.

[3] = female dogs 1004, 1006 individual, 250 mcg intravesical
[4] = female dogs, 250 mcg intravesical

In the case of `C=C(C)[C@]12C[C@@H](C)[C@@]34O[C@](Cc5ccccc5)(O[C@@H]1[C@@H]3C=C(COC(=O)Cc1ccc(O)c(OC)c1)C[C@]1(O)C(=O)C(C)=C[C@@H]41)O2` [RTX, resiniferatoxin], the “Tolerability, detailed clinical observations, body weight” value [1] is reported as “well tolerated and did not result in any detailed clinical observations or changes in body weight”, the concentration at 2 h ([2]; both sexes, dog, plasma, other: intravesical instillation, 25 mcg, Group 1 dogs, 25 mL at 1 mcg/mL (25 mcg/dose), 2 hours post-dosing, male and female dog, read-out: plasma concentrations for RTX) is reported as under 0.05 ng/mL and the “AUC(0-T) Ratio (Male/Female)” value ([2]; dogs, 250 mcg intravesical) is reported as 1.23. For the same compound, the “Cmax Ratio (Male/Female)” value ([2]; dogs, 250 mcg intravesical) was 1.28, the “RTX exposure in males compared with females” value ([2]; dogs, 250 mcg intravesical) was “similar” and the “Plasma concentration of RTX” value ([2]; female dog 1002, 25 mcg intravesical, 2 h) was “BQL (*BQL—Below quantifiable limit (<50.0 pg/mL); adequate signal-to-noise enabled reporting value as estimate)”. For the same compound, the “Plasma concentration of RTX” value ([2]; female dog 1002, 25 mcg intravesical, 4 h) was “BQL (*BQL—Below quantifiable limit (<50.0 pg/mL); adequate signal-to-noise enabled reporting value as estimate)”, the “Plasma concentration of RTX” value ([2]; female dog 1002, 25 mcg intravesical, 6 h) was “BQL (*BQL—Below quantifiable limit (<50.0 pg/mL); adequate signal-to-noise enabled reporting value as estimate)” and the “Plasma concentration of RTX” value ([2]; female dog 1002, 25 mcg intravesical, 12 h) was “BQL (*BQL—Below quantifiable limit (<50.0 pg/mL); adequate signal-to-noise enabled reporting value as estimate)”. For the same compound, the “Plasma concentration of RTX” value ([2]; female dog 1002, 25 mcg intravesical, 24 h) was “BQL (*BQL—Below quantifiable limit (<50.0 pg/mL); adequate signal-to-noise enabled reporting value as estimate)”, the “Plasma concentration of RTX” value ([2]; female dog 1002, 25 mcg intravesical, 36 h) was “BQL (*BQL—Below quantifiable limit (<50.0 pg/mL); adequate signal-to-noise enabled reporting value as estimate)” and the “Plasma concentration of RTX” value ([2]; female dog 1002, 25 mcg intravesical, 48 h) was “BQL (*BQL—Below quantifiable limit (<50.0 pg/mL); adequate signal-to-noise enabled reporting value as estimate)”. For the same compound, the “Plasma concentration of RTX” value ([2]; female dog 1002, 25 mcg intravesical, 60 h) was “BQL (*BQL—Below quantifiable limit (<50.0 pg/mL); adequate signal-to-noise enabled reporting value as estimate)”, the “Plasma concentration of RTX” value ([2]; female dog 1002, 25 mcg intravesical, 72 h) was “BQL (*BQL—Below quantifiable limit (<50.0 pg/mL); adequate signal-to-noise enabled reporting value as estimate)” and the “Plasma concentration of RTX” value ([2]; female dog 1002, 25 mcg intravesical, Predose) was “BQL (*BQL—Below quantifiable limit (<50.0 pg/mL); adequate signal-to-noise enabled reporting value as estimate)”. The “AUC(0-T)” value [2, 3] was 441 pg·h/mL and 146 pg·h/mL, the “AUC(0-T)/Dose” value [2, 3] was 1.76 pg·h/mL/µg and 0.584 pg·h/mL/µg and the Cmax [2, 3] was 388 pg/mL and 160 pg/mL. For the same compound, the Cmax/Dose [2, 3] was 1.55 pg/mL/µg and 0.640 pg/mL/µg, the “Plasma concentration of RTX” value ([2]; female dogs 1004, 1006 individual, 250 mcg intravesical, 0.5 h) was 388 pg/mL and 0.00 pg/mL and the “Plasma concentration of RTX” value ([2]; female dogs 1004, 1006 individual, 250 mcg intravesical, 1 h) was 160 pg/mL. The “Plasma concentration of RTX” value ([2]; female dogs 1004, 1006 individual, 250 mcg intravesical, 2 h) was 51.1 pg/mL, the “Plasma concentration of RTX” value ([2]; female dogs 1004, 1006 individual, 250 mcg intravesical, 4 h) was 0.00 pg/mL and the “Plasma concentration of RTX” value ([2]; female dogs 1004, 1006 individual, 250 mcg intravesical, 6 h) was 0.00 pg/mL. For the same compound, the “Plasma concentration of RTX” value ([2]; female dogs 1004, 1006 individual, 250 mcg intravesical, 12 h) was 0.00 pg/mL, the “Plasma concentration of RTX” value ([2]; female dogs 1004, 1006 individual, 250 mcg intravesical, 24 h) was 0.00 pg/mL and the “Plasma concentration of RTX” value ([2]; female dogs 1004, 1006 individual, 250 mcg intravesical, 36 h) was 0.00 pg/mL. For the same compound, the “Plasma concentration of RTX” value ([2]; female dogs 1004, 1006 individual, 250 mcg intravesical, 48 h) was 0.00 pg/mL, the “Plasma concentration of RTX” value ([2]; female dogs 1004, 1006 individual, 250 mcg intravesical, 60 h) was 0.00 pg/mL and the “Plasma concentration of RTX” value ([2]; female dogs 1004, 1006 individual, 250 mcg intravesical, 72 h) was 0.00 pg/mL. The “Plasma concentration of RTX” value ([2]; female dogs 1004, 1006 individual, 250 mcg intravesical, Predose) was 0.00 pg/mL, the “AUC(0-T)/Dose, Mean” value [2, 4] was 1.18 pg·h/mL/µg and the “Cmax/Dose, Mean” value [2, 4] was 1.10 pg/mL/µg. For the same compound, the “Plasma concentration of RTX, Mean” value ([2]; female dogs, 250 mcg intravesical, Predose) was 0.00 pg/mL, the Tmax ([2]; female, dog, plasma, 250 ug, female dogs 1004, 1006 individual, 250 mcg intravesical, read-out: Tmax) was 30 min and the Tmax ([2]; female, dog, plasma, 250 ug, female dogs, 250 mcg intravesical, read-out: Tmax, Mean) was 45 ± 21.2 min. The concentration at 60 h ([2]; female, dog, plasma, other: intravesical instillation into the urinary bladder, 250 mcg, female dogs 1004, 1006 individual, 250 mcg intravesical, 60 h, read-out: Plasma concentration of RTX) was 0 ng/mL, the concentration at 72 h ([2]; female, dog, plasma, other: intravesical instillation into the urinary bladder, 250 mcg, female dogs 1004, 1006 individual, 250 mcg intravesical, 72 h, read-out: Plasma concentration of RTX) was 0 ng/mL and the concentration at 0.5 h ([2]; female, dog, plasma, other: intravesical instillation into the urinary bladder, 250 mcg, female dogs, 250 mcg intravesical, 0.5 h, read-out: Plasma concentration of RTX, Mean) was 0.194 ng/mL. The concentration at 60 h ([2]; female, dog, plasma, other: intravesical instillation into the urinary bladder, 250 mcg, female dogs, 250 mcg intravesical, 60 h, read-out: Plasma concentration of RTX, Mean) was 0 ng/mL, the concentration at 72 h ([2]; female, dog, plasma, other: intravesical instillation into the urinary bladder, 250 mcg, female dogs, 250 mcg intravesical, 72 h, read-out: Plasma concentration of RTX, Mean) was 0 ng/mL and the AUC(0-t) ([2]; female, dog, plasma, other: intravesical instillation, 250 ug, female dogs, 250 mcg intravesical, read-out: AUC(0-T), Mean) was 0.294 ± 0.209 ng·h/mL. The Cmax ([2]; female, dog, plasma, other: intravesical instillation, 250 ug, female dogs, 250 mcg intravesical, read-out: Cmax, Mean) was 274 ± 161 pg/mL, the Tmax ([2]; female, dog, plasma, other: intravesical instillation, 250 ug, female dogs, 250 mcg intravesical, read-out: Tmax, Mean) was 45 min and the concentration at 0.5 h ([2]; female, dog, plasma, other: intravesical instillation, 25 mcg, female dog 1002, 25 mcg intravesical, 0.5 h, read-out: Plasma concentration of RTX) was 0.0392 ng/mL. For the same compound, the concentration at 1 h ([2]; female, dog, plasma, other: intravesical instillation, 25 mcg, female dog 1002, 25 mcg intravesical, 1 h, read-out: Plasma concentration of RTX) was 0.0203 ng/mL, the concentration at 1 h ([2]; female, dog, plasma, other: intravesical instillation, 250 mcg, female dogs 1004, 1006 individual, 250 mcg intravesical, 1 h, read-out: Plasma concentration of RTX) was 0.289 ng/mL and the concentration at 2 h ([2]; female, dog, plasma, other: intravesical instillation, 250 mcg, female dogs 1004, 1006 individual, 250 mcg intravesical, 2 h, read-out: Plasma concentration of RTX) was 0.0602 ng/mL. The concentration at 4 h ([2]; female, dog, plasma, other: intravesical instillation, 250 mcg, female dogs 1004, 1006 individual, 250 mcg intravesical, 4 h, read-out: Plasma concentration of RTX) was 0 ng/mL, the concentration at 6 h ([2]; female, dog, plasma, other: intravesical instillation, 250 mcg, female dogs 1004, 1006 individual, 250 mcg intravesical, 6 h, read-out: Plasma concentration of RTX) was 0 ng/mL and the concentration at 12 h ([2]; female, dog, plasma, other: intravesical instillation, 250 mcg, female dogs 1004, 1006 individual, 250 mcg intravesical, 12 h, read-out: Plasma concentration of RTX) was 0 ng/mL. It also gave a concentration at 24 h ([2]; female, dog, plasma, other: intravesical instillation, 250 mcg, female dogs 1004, 1006 individual, 250 mcg intravesical, 24 h, read-out: Plasma concentration of RTX) of 0 ng/mL, a concentration at 36 h ([2]; female, dog, plasma, other: intravesical instillation, 250 mcg, female dogs 1004, 1006 individual, 250 mcg intravesical, 36 h, read-out: Plasma concentration of RTX) of 0 ng/mL and a concentration at 48 h ([2]; female, dog, plasma, other: intravesical instillation, 250 mcg, female dogs 1004, 1006 individual, 250 mcg intravesical, 48 h, read-out: Plasma concentration of RTX) of 0 ng/mL. The concentration at 1 h ([2]; female, dog, plasma, other: intravesical instillation, 250 mcg, female dogs, 250 mcg intravesical, 1 h, read-out: Plasma concentration of RTX, Mean) was 0.225 ng/mL, the concentration at 2 h ([2]; female, dog, plasma, other: intravesical instillation, 250 mcg, female dogs, 250 mcg intravesical, 2 h, read-out: Plasma concentration of RTX, Mean) was 0.0557 ng/mL and the concentration at 4 h ([2]; female, dog, plasma, other: intravesical instillation, 250 mcg, female dogs, 250 mcg intravesical, 4 h, read-out: Plasma concentration of RTX, Mean) was 0 ng/mL. It also gave a concentration at 6 h ([2]; female, dog, plasma, other: intravesical instillation, 250 mcg, female dogs, 250 mcg intravesical, 6 h, read-out: Plasma concentration of RTX, Mean) of 0 ng/mL, a concentration at 12 h ([2]; female, dog, plasma, other: intravesical instillation, 250 mcg, female dogs, 250 mcg intravesical, 12 h, read-out: Plasma concentration of RTX, Mean) of 0 ng/mL and a concentration at 24 h ([2]; female, dog, plasma, other: intravesical instillation, 250 mcg, female dogs, 250 mcg intravesical, 24 h, read-out: Plasma concentration of RTX, Mean) of 0 ng/mL. The concentration at 36 h ([2]; female, dog, plasma, other: intravesical instillation, 250 mcg, female dogs, 250 mcg intravesical, 36 h, read-out: Plasma concentration of RTX, Mean) was 0 ng/mL and the concentration at 48 h ([2]; female, dog, plasma, other: intravesical instillation, 250 mcg, female dogs, 250 mcg intravesical, 48 h, read-out: Plasma concentration of RTX, Mean) was 0 ng/mL.

Source: patent US20230270713A1, “Administration of Resiniferatoxin For Treatment of Bladder Pain or Bladder Cancer” (Sorrento Therapeutics, Inc., priority 2020, published 2023)
